Data reported in patent US20250154134A1, “COMPOUND AS FAK INHIBITOR AND USE THEREOF” (WIGEN BIOMEDICINE TECHNOLOGY (SHANGHAI) CO., LTD., priority 2022, published 2025).

What was measured:
PC3 cells [1] = test: PC3 cell proliferation, 2D activity assay (Cell Titer-Lumi, 72 h); type: cell-based, human; details: Homo sapiens, PC-3, read-out: 2D inhibitory activity against PC3 cells IC50
Protocol: (§1) 2D activity assay: 1200 PC3 cells were seeded in a 96-well plate. After overnight adherence culture, A compound serially diluted was added. […] The growth of the cells was evaluated, and the IC50 of the compound inhibiting cell growth was calculated. 3D activity assay: PC3 cells were seeded in a 96-well plate at 1200 cells/well, and 3D culture was performed. 14 days after a compound serially diluted was added, the growth of the cells was measured. The inhibition percentage and IC50 of the compound were calculated compared to the DMSO control group.

FAK recombinant protein = FAK recombinant protein (Homo sapiens (Human), UniProt Q05397); test: Inhibitory activity against FAK enzyme (HTRF, TK substrate); type: biochemical
Protocol: A compound serially diluted with DMSO was mixed with a FAK recombinant protein. After the mixture was left to stand at room temperature for 10 min, a biotin-labeled TK substrate (TK) and ATP were added. […] The inhibition percentage and IC50 of the compound were calculated compared to the DMSO control group.

PC3 cells [2] = test: PC3 cell proliferation, 3D activity assay (3D culture, 14 days); type: cell-based, human; details: Homo sapiens, PC-3, 336 h, read-out: 3D inhibitory activity against PC3 cells IC50
Protocol: as §1

FAK recombinant protein, sequence (Q05397 whole entry): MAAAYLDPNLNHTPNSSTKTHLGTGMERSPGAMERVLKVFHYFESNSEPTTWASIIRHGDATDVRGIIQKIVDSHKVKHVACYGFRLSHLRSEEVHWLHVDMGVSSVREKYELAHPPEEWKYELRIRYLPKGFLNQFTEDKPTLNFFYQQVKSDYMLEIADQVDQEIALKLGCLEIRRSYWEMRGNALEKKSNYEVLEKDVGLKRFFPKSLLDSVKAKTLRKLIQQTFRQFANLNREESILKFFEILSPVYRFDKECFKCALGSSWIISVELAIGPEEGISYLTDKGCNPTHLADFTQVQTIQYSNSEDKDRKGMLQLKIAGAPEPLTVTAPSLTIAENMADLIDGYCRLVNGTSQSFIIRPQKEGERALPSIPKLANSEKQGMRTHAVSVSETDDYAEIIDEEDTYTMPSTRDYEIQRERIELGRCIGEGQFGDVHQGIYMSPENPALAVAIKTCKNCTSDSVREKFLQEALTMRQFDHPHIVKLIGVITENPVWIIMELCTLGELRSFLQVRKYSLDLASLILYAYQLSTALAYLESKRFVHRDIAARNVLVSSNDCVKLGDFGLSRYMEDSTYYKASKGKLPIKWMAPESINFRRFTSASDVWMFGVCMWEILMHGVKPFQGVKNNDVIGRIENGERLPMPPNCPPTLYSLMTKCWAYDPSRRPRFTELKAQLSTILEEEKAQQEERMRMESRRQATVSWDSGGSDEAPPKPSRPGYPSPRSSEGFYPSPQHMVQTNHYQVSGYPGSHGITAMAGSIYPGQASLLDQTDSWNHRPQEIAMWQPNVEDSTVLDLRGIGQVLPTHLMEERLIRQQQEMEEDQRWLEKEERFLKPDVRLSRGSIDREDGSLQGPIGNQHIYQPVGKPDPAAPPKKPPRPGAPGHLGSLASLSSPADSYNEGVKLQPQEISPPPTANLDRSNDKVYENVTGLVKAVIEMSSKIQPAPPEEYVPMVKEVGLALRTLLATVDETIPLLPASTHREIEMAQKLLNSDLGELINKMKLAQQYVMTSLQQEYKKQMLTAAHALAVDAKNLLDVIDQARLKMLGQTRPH

Row | Structure (SMILES) | IC50 (PC3 cells [1]) [nM] | IC50 (FAK recombinant protein) [nM] | IC50 (PC3 cells [2]) [nM]
1 | CCN1CCC2(CC1)CC(NC(=O)c1ccc(Nc3ncc(C(F)(F)F)c(Oc4cccc5c4C(=O)N(C)C54CC4)n3)c(OC)c1)C2 [Compound 46] | > 2000 | < 20 | 5 to 50
2 | [2H]C([2H])([2H])N1CCC2(CC1)CC(NC(=O)c1cc(OC)c(Nc3ncc(C(F)(F)F)c(Oc4cccc5c4C(=O)N(C)C54CC4)n3)cc1F)C2 [Compound 47] | > 2000 | < 20 | < 5
3 | CCN1CCC2(CC1)CC(NC(=O)c1cc(OC)c(Nc3ncc(C(F)(F)F)c(Oc4cccc5c4C(=O)N(C)C54CC4)n3)cc1F)C2 [Compound 48] | > 2000 | < 20 | 5 to 50
4 | C=Cc1cc(C(=O)NC2CCN(C)CC2)ccc1Nc1ncc(C(F)(F)F)c(Oc2cccc3c2C(=O)N(C)C32CC2)n1 [Compound 49] | > 2000 | < 20 | 5 to 50
5 | CCc1cc(C(=O)NC2CCN(C)CC2)ccc1Nc1ncc(C(F)(F)F)c(Oc2cccc3c2C(=O)N(C)C32CC2)n1 [Compound 50] | > 2000 | < 20 | 5 to 50
6 | CCc1cc(C(=O)NC2CCN(C)CC2)c(F)cc1Nc1ncc(C(F)(F)F)c(Oc2cccc3c2C(=O)N(C)C32CC2)n1 [Compound 51] | > 2000 | < 20 | 5 to 50
7 | CCc1cc(C(=O)NC2CC3(CCN(C)CC3)C2)ccc1Nc1ncc(C(F)(F)F)c(Oc2cccc3c2C(=O)N(C)C32CC2)n1 [Compound 52] | > 2000 | < 20 | < 5
8 | CN1CCC(NC(=O)c2ccc(Nc3ncc(C(F)(F)F)c(Oc4cccc5c4C(=O)N(C)C54CC4)n3)c(OC(F)(F)F)c2)CC1 [Compound 53] | > 2000 | < 20 | 5 to 50
9 | COc1cc(C(=O)NC2CCN(C)CC2)c(-c2cnn(C)c2)cc1Nc1ncc(C(F)(F)F)c(Oc2cccc3c2C(=O)N(C)C32CC2)n1 [Compound 54] | > 2000 | < 20 | < 5
10 | COc1cc(C(=O)N2CC3(CCN(C)CC3)C2)ccc1Nc1ncc(C(F)(F)F)c(Oc2cccc3c2C(=O)N(C)C32CC2)n1 [Compound 55] | > 2000 | < 20 | 5 to 50
11 | COc1cc(C(=O)N2CCC3(CCN(C)CC3)CC2)ccc1Nc1ncc(C(F)(F)F)c(Oc2cccc3c2C(=O)N(C)C32CC2)n1 [Compound 56] | > 2000 | < 20 | > 50
12 | COc1cc(C(=O)N2CCC3(CCN(C)C3)C2)ccc1Nc1ncc(C(F)(F)F)c(Oc2cccc3c2C(=O)N(C)C32CC2)n1 (stereo not drawn) [Compound 57] | > 2000 | < 20 | 5 to 50
13 | COc1cc(C(=O)N2CCC23CCN(C)CC3)ccc1Nc1ncc(C(F)(F)F)c(Oc2cccc3c2C(=O)N(C)C32CC2)n1 [Compound 59] | > 2000 | < 20 | 5 to 50
14 | COc1cc(C(=O)N2CCC3(CCN(C)CC3)C2)ccc1Nc1ncc(C(F)(F)F)c(Oc2cccc3c2C(=O)N(C)C32CC2)n1 [Compound 60] | > 2000 | < 20 | 5 to 50
15 | COc1cc(C(=O)N2CCC3(CCCN(C)C3)C2)ccc1Nc1ncc(C(F)(F)F)c(Oc2cccc3c2C(=O)N(C)C32CC2)n1 (stereo not drawn) [Compound 61] | > 2000 | < 20 | 5 to 50
16 | COc1cc(N2CCC3(CCN(C)CC3)C2=O)ccc1Nc1ncc(C(F)(F)F)c(Oc2cccc3c2C(=O)N(C)C32CC2)n1 [Compound 62] | > 2000 | < 20 | 5 to 50
17 | COc1cc(N2CC3(CCN(C)CC3)CC2=O)ccc1Nc1ncc(C(F)(F)F)c(Oc2cccc3c2C(=O)N(C)C32CC2)n1 [Compound 63] | > 2000 | < 20 | < 5
18 | COc1cc(N2CC3(CCN(C)CC3)OC2=O)ccc1Nc1ncc(C(F)(F)F)c(Oc2cccc3c2C(=O)N(C)C32CC2)n1 [Compound 64] | > 2000 | < 20 | 5 to 50
